{
  "source": "paper PMC8087101",
  "about": "“Human parvovirus B19 interacts with globoside under acidic conditions as an essential step in endocytic trafficking” (PLoS Pathogens, 2021)",
  "target": "T1, B19V (native virus capsid) (Human parvovirus B19 strain HV, UniProt Q9PZT0)",
  "T1 construct": "gene vp; icosahedral capsid of 60 VP1 and VP2 proteins; with Minor capsid protein VP1",
  "experiment": "hemagglutination inhibition of human red blood cells by soluble Gb4; binding to cells also by qPCR",
  "assay_type": "cell-based",
  "conditions": "pH 6.3, PiBS, room temperature; ceramide of natural source (Matreya), in DMSO; Gb3 as control lipid",
  "data": [
    {"substance": "globoside [Gb4]", "values": [
      {"measurement": "hemagglutination inhibition, effective concentration", "result": "0.2 to 0.4", "unit": "µM"}
    ]}
  ]
}
